Laboratory results published in publication PMC7916522, “In Vitro and In Vivo Anti-Candida Activity and Structural Analysis of Killer Peptide (KP)-Derivatives” (Journal of Fungi, 2021).
Peptide text beside a SMILES is read from it.

Experiments:
human red blood cells = settings: peptide 25 µM
Experimental: (§1) A stock solution of peptides (20 mg/mL) was prepared in dimethyl sulfoxide (DMSO), then proper dilutions were made for evaluation of biological activities. DMSO at proper concentration was present in controls (without peptides). All the peptides were evaluated for their hemolytic activity against freshly collected human red blood cells, while cytotoxicity against monkey kidney epithelial cells LLC-MK2 was determined by resazurin assay, as previously described.

LLC-MK2 cells = settings: 24 h incubation, resazurin assay; for Cell viability (%) 10 µM: peptide 10 µM; for Cell viability (%) 25 µM: peptide 25 µM; for Cell viability (%) 50 µM: peptide 50 µM
Experimental: as §1

Candida albicans SC5314 = assay: CFU assay, neutralization of candidacidal activity by laminarin; format: cell-based; settings: peptide at its minimal candidacidal concentration
Experimental: The candidacidal activity of KP-derivatives, in comparison to KP, was evaluated by a previously described colony forming unit (CFU) assay against the reference C. albicans strain SC5314 [25]. Briefly, approximately 500 yeast cells were incubated at 37 °C for 6 h in 100 µL of distilled water in the presence or absence (control growth) of the synthetic peptides at serial dilutions. After spreading on Sabouraud Dextrose agar (SDA) plates and incubation for 48–72 h at 30 °C, CFUs were counted. Peptide fungicidal activity was determined as percentage of CFU inhibition, according to the formula 100-(CFUs peptide treated/CFUs control growth) × 100. Each assay was carried out in triplicate and at least two independent experiments were performed for each condition. Half maximal effective concentration (EC50) was calculated by nonlinear regression analysis using GraphPad Prism 5 software (San Diego, CA, USA). CFU assays were also performed in order to verify if laminarin (100 or 200 µg/mL), a soluble β-1,3-glucan, could neutralize the candidacidal activity of KP-derivatives at their minimum fungicidal concentration [25].

Row | SMILES | hemolysis after 30 min (human red blood cells; 30 min incubation) | Cell viability (%) 10 µM (LLC-MK2 cells) | Cell viability (%) 25 µM (LLC-MK2 cells) | Cell viability (%) 50 µM (LLC-MK2 cells) | C. albicans Growth Inhibition (%) in the Presence of Laminarin 100 µg/mL (Candida albicans SC5314) | C. albicans Growth Inhibition (%) in the Presence of Laminarin 200 µg/mL (Candida albicans SC5314) | hemolysis after 120 min (human red blood cells; 120 min incubation)
1 | CSCC[C@H](NC(=O)[C@@H](NC(=O)[C@@H](NC(=O)[C@H](CCCCN)NC(=O)[C@H](C)N)C(C)C)[C@@H](C)O)C(=O)N[C@H](C(=O)N[C@@H](CS)C(=O)N[C@@H](CO)C(=O)N[C@@H](C)C(=O)N[C@@H](CO)C(=O)O)[C@@H](C)O [A10S (KP)] (H-AKVTMTCSAS-OH) | 1.13% | 93.59% | 88.20% | 89.71% | 96.39 ± 1.68% | 1.80 ± 0.49% | –
2 | CSCC[C@H](NC(=O)[C@@H](NC(=O)[C@@H](NC(=O)[C@H](CCCCN)NC(=O)[C@@H](N)Cc1c[nH]cn1)C(C)C)[C@@H](C)O)C(=O)N[C@H](C(=O)N[C@@H](CS)C(=O)N[C@@H](CO)C(=O)N[C@@H](C)C(=O)N[C@@H](CO)C(=O)O)[C@@H](C)O [Peptide H10S] (H-HKVTMTCSAS-OH) | – | 96.77% | 94.90% | 90.99% | 6.20 ± 3.71% | – | –
3 | CSCC[C@H](NC(=O)[C@@H](NC(=O)[C@@H](NC(=O)[C@@H](N)CCCCN)C(C)C)[C@@H](C)O)C(=O)N[C@H](C(=O)N[C@@H](CS)C(=O)N[C@@H](CO)C(=O)N[C@@H](C)C(=O)N[C@@H](CO)C(=O)O)[C@@H](C)O [Peptide K9S] (H-KVTMTCSAS-OH) | – | 100% | 98.55% | 95.86% | 31.09 ± 1.71% | 0.68 ± 0.97% | –
4 | CSCC[C@H](NC(=O)[C@@H](NC(=O)[C@@H](NC(=O)[C@H](CCCCN)NC(=O)[C@@H](N)CCCCN)C(C)C)[C@@H](C)O)C(=O)N[C@H](C(=O)N[C@@H](CS)C(=O)N[C@@H](CO)C(=O)N[C@@H](C)C(=O)N[C@@H](CO)C(=O)O)[C@@H](C)O [Peptide K10S] (H-KKVTMTCSAS-OH) | – | 93.74% | 100% | 90.95% | 1.07 ± 0.39% | – | 2.42%
5 | CSCC[C@H](NC(=O)[C@@H](NC(=O)[C@@H](NC(=O)[C@H](CCCCN)NC(=O)[C@@H](N)CC(C)C)C(C)C)[C@@H](C)O)C(=O)N[C@H](C(=O)N[C@@H](CS)C(=O)N[C@@H](CO)C(=O)N[C@@H](C)C(=O)N[C@@H](CO)C(=O)O)[C@@H](C)O [Peptide L10S] (H-LKVTMTCSAS-OH) | – | 95.70% | 93.44% | 98.07% | 0% | – | –
6 | CSCC[C@H](NC(=O)[C@@H](NC(=O)[C@@H](NC(=O)[C@H](CCCCN)NC(=O)[C@@H]1CCCN1)C(C)C)[C@@H](C)O)C(=O)N[C@H](C(=O)N[C@@H](CS)C(=O)N[C@@H](CO)C(=O)N[C@@H](C)C(=O)N[C@@H](CO)C(=O)O)[C@@H](C)O [Peptide P10S] (H-PKVTMTCSAS-OH) | – | 93.25% | 90.20% | 89.77% | 97.71 ± 0.46% | 3.10 ± 4.38% | –
7 | CSCC[C@H](NC(=O)[C@@H](NC(=O)[C@@H](NC(=O)[C@H](CCCCN)NC(=O)[C@@H](N)CO)C(C)C)[C@@H](C)O)C(=O)N[C@H](C(=O)N[C@@H](CS)C(=O)N[C@@H](CO)C(=O)N[C@@H](C)C(=O)N[C@@H](CO)C(=O)O)[C@@H](C)O [Peptide S10S] (H-SKVTMTCSAS-OH) | – | 99.77% | 99.75% | 91.09% | 99.12 ± 0.50% | 60.73 ± 13.13% | –
8 | CSCC[C@H](NC(=O)[C@@H](NC(=O)[C@@H](NC(=O)[C@H](CCCCN)NC(=O)[C@@H](N)Cc1ccc(O)cc1)C(C)C)[C@@H](C)O)C(=O)N[C@H](C(=O)N[C@@H](CS)C(=O)N[C@@H](CO)C(=O)N[C@@H](C)C(=O)N[C@@H](CO)C(=O)O)[C@@H](C)O [Peptide Y10S] (H-YKVTMTCSAS-OH) | – | 96.89% | 95.35% | 97.18% | 5.57 ± 4.84% | – | –
